Active and inactive are the calls of the source. The calls are words filed in the database; no cut-off is given here.

Experiment [1] is filed under the species Ovis aries. The experiment in a line: Induction of self assembly of full-length native sheep brain dynamin 1 assessed as formation of dynamin rings at 5.4 uM using 200 nM full-length dynamin in absence of PS liposomes by electron microscopic analysis.
Experiment [2] is filed under the species Ovis aries. Briefly: Inhibition of full-length native sheep brain dynamin 1 assessed as reduction in PS liposomes-induced GTPase activity at 5 uM.
The species named for experiment [3] is Ovis aries. Briefly: Inhibition of full-length native sheep brain dynamin 1 assessed as reduction in PS liposomes-induced GTPase activity at 5 uM using 400 nM full-length dynamin 1.
For experiment [4], the species on record is Ovis aries. The experiment in a line: Ring stabilizer activity at full-length native sheep brain dynamin 1 assessed as stimulation of GTPase activity at 5 uM in absence of PS liposomes using =>100 nM full-length dynamin 1.
Experiment [5] is filed under the species Ovis aries. The experiment in a line: Ring stabilizer activity at full-length native sheep brain dynamin 1 assessed as stimulation of GTPase activity at 5 uM in absence of PS liposomes using <100 nM full-length dynamin 1.
Experiment [6] is described as follows: Inhibition of helical full-length native sheep brain dynamin 1 assessed as reduction in PS liposomes-induced GTPase activity. Further details: species or system Ovis aries.
The species entered for experiment [7] is Ovis aries. The experiment in a line: Ring stabilizer activity at full-length native sheep brain dynamin 1 assessed as stimulation of GTPase activity using 800 nM full-length dynamin in presence of 30 mM NaCl in absence of PS liposomes and measured after 4 mins. As to conditions: TDE = time-dependent effect.
Another experiment addresses T1, Dynamin-1 (Homo sapiens) (UniProt Q05193).
T1 sequence (whole entry): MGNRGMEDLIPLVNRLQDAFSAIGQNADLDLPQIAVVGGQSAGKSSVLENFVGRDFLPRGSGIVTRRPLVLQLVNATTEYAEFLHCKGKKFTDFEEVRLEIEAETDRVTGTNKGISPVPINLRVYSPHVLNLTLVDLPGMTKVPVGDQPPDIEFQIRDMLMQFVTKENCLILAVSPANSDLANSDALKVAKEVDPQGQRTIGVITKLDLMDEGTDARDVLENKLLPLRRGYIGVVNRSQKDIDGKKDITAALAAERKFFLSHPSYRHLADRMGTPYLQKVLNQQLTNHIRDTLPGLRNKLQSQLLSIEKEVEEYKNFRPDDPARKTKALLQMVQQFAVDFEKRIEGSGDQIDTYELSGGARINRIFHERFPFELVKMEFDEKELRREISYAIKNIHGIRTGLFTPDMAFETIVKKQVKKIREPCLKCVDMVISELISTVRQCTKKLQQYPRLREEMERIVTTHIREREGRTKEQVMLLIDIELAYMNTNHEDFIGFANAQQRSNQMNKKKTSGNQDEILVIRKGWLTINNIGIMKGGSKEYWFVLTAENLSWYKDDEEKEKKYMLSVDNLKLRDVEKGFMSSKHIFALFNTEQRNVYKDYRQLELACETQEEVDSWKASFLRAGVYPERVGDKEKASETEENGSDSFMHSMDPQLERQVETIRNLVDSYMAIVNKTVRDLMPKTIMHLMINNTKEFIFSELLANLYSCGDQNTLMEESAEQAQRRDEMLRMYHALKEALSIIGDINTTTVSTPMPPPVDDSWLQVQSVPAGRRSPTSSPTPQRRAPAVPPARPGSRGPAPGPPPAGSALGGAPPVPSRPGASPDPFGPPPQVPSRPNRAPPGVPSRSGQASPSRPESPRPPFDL
The experiment in a line: Ring stabilizer activity at recombinant dynamin 1 dimeric GG2 form (unknown origin) assessed as stimulation of GTPase activity using 200 to 1000 nM full-length dynamin.

For experiment [8], the species on record is Ovis aries. The experiment in a line: Inhibition of dis-assembly of pre-assembled full-length native sheep brain dynamin 1 pre-incubated in presence of PS liposomes followed compound addition at 5 uM and measured after 10 mins.
For experiment [9], the species on record is Ovis aries. Briefly: Induction of helical shape alteration of full-length native sheep brain dynamin 1 by electron microscopic analysis.
Experiment [10] is filed under the species Ovis aries. The experiment in a line: Ring stabilizer activity at full-length native sheep brain dynamin 1 assessed as stimulation of GTPase activity in absence of PS liposomes and in presence of tween-80.
Experiment [11] is filed under the species Ovis aries. Briefly: Ring stabilizer activity at full-length native sheep brain dynamin 1 assessed as increase in basal dynamin GTP hydrolysis up to 40 mins.
The species entered for experiment [12] is Ovis aries. The experiment in a line: Ring stabilizer activity at full-length native sheep brain dynamin 1 assessed as increase in basal dynamin GTP hydrolysis up to 40 mins in presence of Gsn-F-actin.
Experiment [13] addresses T2, Dynamin-1 (Mus musculus) (UniProt P39053).
T2 sequence (whole entry): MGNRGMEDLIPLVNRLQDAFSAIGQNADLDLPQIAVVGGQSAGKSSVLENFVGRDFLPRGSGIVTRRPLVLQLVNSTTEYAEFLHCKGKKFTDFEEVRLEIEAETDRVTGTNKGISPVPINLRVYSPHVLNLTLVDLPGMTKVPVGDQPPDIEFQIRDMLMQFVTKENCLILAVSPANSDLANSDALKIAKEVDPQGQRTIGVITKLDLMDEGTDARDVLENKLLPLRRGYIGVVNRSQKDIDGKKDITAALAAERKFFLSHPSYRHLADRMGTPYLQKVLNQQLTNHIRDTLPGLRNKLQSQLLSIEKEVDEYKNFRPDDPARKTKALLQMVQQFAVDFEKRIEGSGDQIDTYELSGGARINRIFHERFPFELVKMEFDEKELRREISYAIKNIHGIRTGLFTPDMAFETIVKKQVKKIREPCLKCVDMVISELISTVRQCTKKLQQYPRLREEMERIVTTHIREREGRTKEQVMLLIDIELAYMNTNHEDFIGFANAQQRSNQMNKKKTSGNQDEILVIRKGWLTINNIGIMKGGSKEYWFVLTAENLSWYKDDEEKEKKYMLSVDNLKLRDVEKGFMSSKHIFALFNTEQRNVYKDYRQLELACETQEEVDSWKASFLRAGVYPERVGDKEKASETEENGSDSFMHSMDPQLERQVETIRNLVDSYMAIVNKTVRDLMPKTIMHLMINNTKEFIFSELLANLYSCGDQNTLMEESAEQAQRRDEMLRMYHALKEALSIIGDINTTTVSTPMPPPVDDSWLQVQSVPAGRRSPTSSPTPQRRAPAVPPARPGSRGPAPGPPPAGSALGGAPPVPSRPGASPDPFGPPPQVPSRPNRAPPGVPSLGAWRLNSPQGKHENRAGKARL
The experiment in a line: Ring stabilizer activity at dynamin in mouse podocytes assessed as increase in well-defined stress fibers incubated for 10 mins. The experiment is classed as cell-based.

Experiment [14] addresses T2, Dynamin-1 (Mus musculus). The experiment in a line: Ring stabilizer activity at dynamin in mouse podocytes assessed as increase in focal adhesions incubated for 10 mins by paxillin staining based assay. The experiment is classed as cell-based.
The species named for experiment [15] is Mus musculus. Briefly: Inhibition of endocytosis in mouse podocytes. The experiment is classed as functional, cell-based.
Experiment [16] deals with Mus musculus. Briefly: Reduction in proteinuria in mouse model of proteinuria expressing ACTN4 gene gain of function mutation at 166 ug/100 g body weight, ip dosed at 0 hrs and measured every 2 hrs post dose up to 6 hrs by ELISA and creatinine companion assay. The experiment is classed as functional, organism-based. A general note: In an ELISA, binding on a coated surface is turned into a signal by an enzyme label.

Experiment [17] has as its system Mus musculus. Briefly: Reduction in proteinuria in BALB/c mouse model of LPS-induced reversible proteinuric kidney disease at 300 ug/100 g body weight, ip measured 2 to 6 hrs post dose by ELISA. The experiment is classed as functional, organism-based.
The test system of experiment [18] is Mus musculus. The experiment in a line: Reduction in proteinuria in BALB/c mouse model of LPS-induced reversible proteinuric kidney disease at 300 ug/100 g body weight, ip measured 8 hrs post dose by ELISA. The experiment is classed as functional, organism-based.

As a reminder, the IC50 is the concentration at which inhibition is half-maximal. Turning to `N#C/C(=C\c1cc(O)c(O)c(O)c1)C(=O)NCCCNC(=O)/C(C#N)=C/c1cc(O)c(O)c(O)c1`, the outcome in the experiment listed under Ovis aries [1], in the experiment filed under Ovis aries [4], in the experiment listed under Ovis aries [9], in the experiment listed under Ovis aries [10], in the experiment listed under Ovis aries [11] and in the experiment listed under Ovis aries [12] was Active. Moreover, the outcome at Dynamin-1 (Mus musculus) [13], on Dynamin-1 (Mus musculus) [14], in the experiment on Mus musculus [16] and in the experiment on Mus musculus [17] was Active. Besides, the inhibition entry in the experiment listed under Ovis aries [2], in the experiment filed under Ovis aries [8] and in the experiment filed under Mus musculus [15] was “Active” each time. Besides, the inhibition result in the experiment listed under Ovis aries [3] is “inactive”. The result in the experiment listed under Ovis aries [5], on Dynamin-1 (Homo sapiens) and in the experiment on Mus musculus [18] was inactive. Besides, in experiment [6], the half-maximal inhibitory concentration (IC50) came to 500 nM. Moreover, the Activity entry in the experiment listed under Ovis aries [7] was “Tde”.

The record behind these values is ChEMBL document CHEMBL4421721, “Use of dynamin ring stabilizers” (2012).
